Key:
Assay in all cases: selective drug sensitivity score (sDSS, relative to normal bone marrow) (sDSS (score)); higher = more potent and effective on the cell line relative to normal bone marrow cells
Conditions in all cases: 72 h
SUP-B15 = tested on: SUP-B15
KASUMI-9 = tested on: KASUMI-9
MOLT-4 = tested on: MOLT-4
CCRF-HSB2 = tested on: CCRF-HSB2
MOLT-14 = tested on: MOLT-14
MOLT-16 = tested on: MOLT-16
COG-LL-394h = tested on: COG-LL-394h
COG-LL-402h = tested on: COG-LL-402h
HAL-01 = tested on: HAL-01
697 = tested on: 697
NALM-16 = tested on: NALM-16
COG-LL-319h = tested on: COG-LL-319h
P30-OHKUBO = tested on: P30-OHKUBO
KOPN-8 = tested on: KOPN-8
MN-60 = tested on: MN-60
PEER = tested on: PEER
P12-ICHIKAWA = tested on: P12-ICHIKAWA
COG-LL-355h = tested on: COG-LL-355h
NALM-6 = tested on: NALM-6
COG-LL-317 = tested on: COG-LL-317
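Note: ALL cell lines in 384-well plates, five doses spanning 10,000-fold, each plate scaled between vehicle and 100 µmol/L benzalkonium chloride controls, sDSS an adapted area-under-curve metric.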

| Compound | selective drug sensitivity score (SUP-B15) | selective drug sensitivity score (KASUMI-9) | selective drug sensitivity score (MOLT-4) | selective drug sensitivity score (CCRF-HSB2) | selective drug sensitivity score (MOLT-14) | selective drug sensitivity score (MOLT-16) | selective drug sensitivity score (COG-LL-394h) | selective drug sensitivity score (COG-LL-402h) | selective drug sensitivity score (HAL-01) | selective drug sensitivity score 697 | selective drug sensitivity score (NALM-16) | selective drug sensitivity score (COG-LL-319h) | selective drug sensitivity score (P30-OHKUBO) | selective drug sensitivity score (KOPN-8) | selective drug sensitivity score (MN-60) | selective drug sensitivity score (PEER) | selective drug sensitivity score (P12-ICHIKAWA) | selective drug sensitivity score (COG-LL-355h) | selective drug sensitivity score (NALM-6) | selective drug sensitivity score (COG-LL-317) |
| --- | --- | --- | --- | --- | --- | --- | --- | --- | --- | --- | --- | --- | --- | --- | --- | --- | --- | --- | --- | --- |
| C[C@H]1C=C2C(=O)O[C@H]3CC[C@@H](C1)[C@@]23O [Galiellalactone] (top concentration 25000 nM) | 3.46 | 6.76 | -0.44 | 2.76 | 5.26 | 3.36 | -0.74 | 3.76 | 6.06 | 3.26 | 6.06 | 7.46 | 5.26 | 4.16 | 2.46 | 1.66 | 1.86 | 3.66 | 5.16 | 7.36 |
| C=CC(=O)N1CC/C(=C\c2ccc(F)c([N+](=O)[O-])c2)C(=O)/C(=C/c2ccc(F)c([N+](=O)[O-])c2)C1 [VLX1570] (top concentration 10000 nM) | 1.38 | 0.88 | -5.62 | -2.12 | -0.92 | -1.32 | -1.92 | 5.28 | -2.52 | -1.02 | -3.72 | 2.08 | 1.88 | 3.88 | -5.32 | -4.72 | -4.92 | 6.08 | 4.08 | 2.78 |
| CCS(=O)(=O)N1CCN(c2ccc(Nc3ncc(C(N)=O)c(NC4CC4)n3)cc2)CC1 [Cerdulatinib] (top concentration 10000 nM) | 0.04 | -1.36 | -7.46 | 1.34 | -3.16 | -2.36 | -8.56 | -2.56 | -11.9 | -3.66 | -11.4 | 2.14 | 3.44 | 3.14 | -11.9 | -0.16 | -4.46 | -7.46 | 1.44 | -7.66 |
| Nc1cc(F)ccc1NC(=O)c1ccc(CNC(=O)/C=C/c2cccnc2)cc1 [Tucidinostat] (top concentration 10000 nM) | 5.34 | 7.24 | -0.76 | 2.14 | 3.94 | 4.54 | -3.86 | 5.34 | -2.06 | 6.34 | -0.36 | 12 | 4.04 | 12.4 | 1.54 | 5.44 | 4.04 | 0.64 | -0.36 | 2.74 |
| CCN(CC)CCNC(=O)c1c(C)[nH]c(/C=C2\C(=O)Nc3ccc(F)cc32)c1C [Sunitinib] (top concentration 1000 nM) | 6.86 | 0.66 | -0.94 | 1.36 | 0.76 | -1.44 | -0.34 | -1.44 | 3.36 | 1.16 | -1.04 | -1.34 | 0.76 | -1.44 | -1.44 | -0.24 | -1.34 | 5.66 | -1.44 | -1.44 |
| CN[C@@H](C)C(=O)N[C@H](C(=O)N1CCC[C@H]1c1nc(C(=O)c2ccc(F)cc2)cs1)C1CCCCC1 [NVP-LCL161] (top concentration 25000 nM) | -3.82 | -2.72 | -4.32 | 1.88 | -3.52 | -1.62 | 6.58 | -5.42 | 7.88 | -4.92 | -5.82 | -2.32 | -1.12 | 0.28 | -5.72 | -2.72 | -4.32 | 12.2 | -5.82 | -2.02 |
| COCC[n+]1c2c(n(Cc3cnccn3)c1C)C(=O)c1ccccc1C2=O [Sepantronium_bromide] (top concentration 10000 nM) | 22.3 | 16.2 | 15.9 | 14.6 | 12.5 | 12.7 | -11.7 | 22.8 | -12.6 | 22.8 | 22.2 | 4.64 | 22.8 | 22.8 | 21.2 | 15.1 | 4.14 | 15.5 | 22.3 | 13.3 |
| CCN(CCO)CCCOc1ccc2c(Nc3cc(CC(=O)Nc4cccc(F)c4)[nH]n3)ncnc2c1 [AZD1152-HQPA] (top concentration 1000 nM) | 22.2 | 17.1 | 13.5 | 23.5 | 17.8 | 27.7 | 3.24 | 18.4 | -4.46 | 16.5 | 0.34 | 24.2 | 24.7 | 12.1 | -2.46 | 21.8 | 19 | 8.84 | 8.94 | 19.8 |
